Holding throughout (assay type): biochemical
The target in one experiment is JNK3 (Homo sapiens, UniProt P53779). Put plainly: Kinase profiling JNK3. The note with it: for remaining activity at 100 µM: read-out: residual kinase activity, JNK3. From the text: (§1) Any value less that 25 is considered to be highly significant inhibition.
A further experiment addresses T1, p38g MAPK (Homo sapiens, UniProt P53778).
T1 sequence (P53778 1-367): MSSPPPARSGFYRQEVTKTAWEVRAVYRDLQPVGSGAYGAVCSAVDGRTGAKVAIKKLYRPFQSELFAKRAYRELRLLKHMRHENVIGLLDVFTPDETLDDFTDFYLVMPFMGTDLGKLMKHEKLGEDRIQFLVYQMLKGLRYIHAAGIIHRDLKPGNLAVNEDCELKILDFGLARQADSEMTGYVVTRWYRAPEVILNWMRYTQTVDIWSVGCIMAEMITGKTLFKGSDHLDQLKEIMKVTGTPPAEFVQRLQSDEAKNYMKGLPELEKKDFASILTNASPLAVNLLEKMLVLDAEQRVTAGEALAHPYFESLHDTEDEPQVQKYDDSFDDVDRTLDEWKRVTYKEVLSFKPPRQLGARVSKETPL
As to the kind of experiment: Kinase profiling p38g MAPK. The note with it: for remaining activity at 100 µM: read-out: residual kinase activity, p38g MAPK.
Description: as §1

In the next experiment the target is T2, p38d MAPK (Homo sapiens, UniProt O15264).
T2 sequence (O15264 1-365): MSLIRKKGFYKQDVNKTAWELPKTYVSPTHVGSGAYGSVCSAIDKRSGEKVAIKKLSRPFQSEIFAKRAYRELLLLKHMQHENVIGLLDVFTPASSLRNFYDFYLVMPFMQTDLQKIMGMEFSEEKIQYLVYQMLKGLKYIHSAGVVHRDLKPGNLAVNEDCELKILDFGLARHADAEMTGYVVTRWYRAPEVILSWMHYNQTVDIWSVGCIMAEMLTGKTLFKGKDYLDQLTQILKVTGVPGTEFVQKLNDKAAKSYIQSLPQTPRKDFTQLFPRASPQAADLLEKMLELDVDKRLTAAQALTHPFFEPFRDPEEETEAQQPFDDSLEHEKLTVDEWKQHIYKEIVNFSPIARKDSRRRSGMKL
Put plainly: Kinase profiling p38d MAPK. The note with it: for remaining activity at 100 µM: read-out: residual kinase activity, p38d MAPK.
Description: as §1

A further experiment concerns the target S6K1 (Homo sapiens, UniProt P23443). Put plainly: Kinase profiling S6K1. The settings on record: for remaining activity at 100 µM: read-out: residual kinase activity, S6K1.
Description: as §1

In another experiment the target is SmMLCK (Homo sapiens, UniProt Q15746). Put plainly: Kinase profiling SmMLCK. The settings on record: 100 micromolar inhibitor concentration; 100 is no change; read-out: residual kinase activity, SmMLCK.
Another experiment concerns the target HIPK2 (Homo sapiens, UniProt Q9H2X6). Put plainly: Kinase profiling HIPK2. The note with it: read-out: residual kinase activity, HIPK2.
Description: as §1

Another experiment concerns the target T3, IRAK4 (Homo sapiens, UniProt Q9NWZ3).
T3 sequence (Q9NWZ3 1-460): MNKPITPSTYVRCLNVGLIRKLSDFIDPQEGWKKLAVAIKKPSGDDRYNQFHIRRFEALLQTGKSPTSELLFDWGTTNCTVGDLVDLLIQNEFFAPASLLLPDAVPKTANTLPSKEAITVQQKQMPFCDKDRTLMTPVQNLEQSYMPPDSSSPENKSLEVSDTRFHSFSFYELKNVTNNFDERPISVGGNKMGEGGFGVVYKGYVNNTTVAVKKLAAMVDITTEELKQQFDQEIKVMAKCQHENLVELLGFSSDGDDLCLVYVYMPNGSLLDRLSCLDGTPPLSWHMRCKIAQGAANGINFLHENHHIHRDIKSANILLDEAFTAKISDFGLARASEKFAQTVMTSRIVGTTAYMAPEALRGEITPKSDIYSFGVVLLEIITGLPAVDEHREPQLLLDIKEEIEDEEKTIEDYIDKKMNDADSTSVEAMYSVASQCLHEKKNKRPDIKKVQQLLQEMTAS
As to the kind of experiment: Kinase profiling IRAK4. The settings on record: read-out: residual kinase activity, IRAK4.
Description: as §1

The target in the next experiment is T4, TTK (Homo sapiens, UniProt P33981).
T4 sequence (P33981 1-857): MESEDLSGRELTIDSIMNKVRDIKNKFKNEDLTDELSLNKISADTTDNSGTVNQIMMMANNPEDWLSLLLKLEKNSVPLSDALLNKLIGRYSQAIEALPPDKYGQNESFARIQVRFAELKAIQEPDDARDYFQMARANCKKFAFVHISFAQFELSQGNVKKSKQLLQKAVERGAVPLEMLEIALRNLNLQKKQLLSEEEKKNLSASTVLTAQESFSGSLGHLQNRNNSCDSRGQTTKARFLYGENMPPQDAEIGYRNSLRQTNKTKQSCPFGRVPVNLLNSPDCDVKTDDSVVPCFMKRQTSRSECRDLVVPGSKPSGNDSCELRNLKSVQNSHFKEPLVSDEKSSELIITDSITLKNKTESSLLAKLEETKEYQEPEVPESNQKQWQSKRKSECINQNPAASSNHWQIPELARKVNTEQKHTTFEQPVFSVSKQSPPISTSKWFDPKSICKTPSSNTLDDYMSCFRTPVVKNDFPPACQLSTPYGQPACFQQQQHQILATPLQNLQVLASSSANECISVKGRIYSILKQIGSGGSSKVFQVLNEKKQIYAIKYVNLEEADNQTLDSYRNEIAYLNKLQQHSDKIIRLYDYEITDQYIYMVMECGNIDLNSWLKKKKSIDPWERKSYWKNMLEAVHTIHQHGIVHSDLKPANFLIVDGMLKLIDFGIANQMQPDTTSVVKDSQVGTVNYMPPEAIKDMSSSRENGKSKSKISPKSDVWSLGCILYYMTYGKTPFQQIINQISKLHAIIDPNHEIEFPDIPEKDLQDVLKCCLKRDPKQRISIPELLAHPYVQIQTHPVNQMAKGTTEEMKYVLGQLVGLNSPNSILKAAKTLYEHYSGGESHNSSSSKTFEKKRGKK
As to the kind of experiment: Kinase profiling TTK. The note with it: read-out: residual kinase activity, TTK.
Description: as §1

Another experiment addresses Src (Homo sapiens, UniProt P12931). As to the kind of experiment: Kinase profiling Src. The note with it: read-out: residual kinase activity, Src.
Description: as §1

In another experiment the target is TrkA (Homo sapiens, UniProt P04629). Put plainly: Kinase profiling TrkA. The note with it: read-out: residual kinase activity, TrkA.
Description: as §1

A further experiment relates to VEG-FR. As to the kind of experiment: Kinase profiling VEG-FR. The settings on record: 100 micromolar inhibitor concentration; 100 is no change.
Description: as §1

Setting [1] is: 100 micromolar inhibitor concentration, 100 is no change.

Read-outs that look alike come from different tables or passages of the source.

Sequence of SmMLCK (Q15746 923-1914): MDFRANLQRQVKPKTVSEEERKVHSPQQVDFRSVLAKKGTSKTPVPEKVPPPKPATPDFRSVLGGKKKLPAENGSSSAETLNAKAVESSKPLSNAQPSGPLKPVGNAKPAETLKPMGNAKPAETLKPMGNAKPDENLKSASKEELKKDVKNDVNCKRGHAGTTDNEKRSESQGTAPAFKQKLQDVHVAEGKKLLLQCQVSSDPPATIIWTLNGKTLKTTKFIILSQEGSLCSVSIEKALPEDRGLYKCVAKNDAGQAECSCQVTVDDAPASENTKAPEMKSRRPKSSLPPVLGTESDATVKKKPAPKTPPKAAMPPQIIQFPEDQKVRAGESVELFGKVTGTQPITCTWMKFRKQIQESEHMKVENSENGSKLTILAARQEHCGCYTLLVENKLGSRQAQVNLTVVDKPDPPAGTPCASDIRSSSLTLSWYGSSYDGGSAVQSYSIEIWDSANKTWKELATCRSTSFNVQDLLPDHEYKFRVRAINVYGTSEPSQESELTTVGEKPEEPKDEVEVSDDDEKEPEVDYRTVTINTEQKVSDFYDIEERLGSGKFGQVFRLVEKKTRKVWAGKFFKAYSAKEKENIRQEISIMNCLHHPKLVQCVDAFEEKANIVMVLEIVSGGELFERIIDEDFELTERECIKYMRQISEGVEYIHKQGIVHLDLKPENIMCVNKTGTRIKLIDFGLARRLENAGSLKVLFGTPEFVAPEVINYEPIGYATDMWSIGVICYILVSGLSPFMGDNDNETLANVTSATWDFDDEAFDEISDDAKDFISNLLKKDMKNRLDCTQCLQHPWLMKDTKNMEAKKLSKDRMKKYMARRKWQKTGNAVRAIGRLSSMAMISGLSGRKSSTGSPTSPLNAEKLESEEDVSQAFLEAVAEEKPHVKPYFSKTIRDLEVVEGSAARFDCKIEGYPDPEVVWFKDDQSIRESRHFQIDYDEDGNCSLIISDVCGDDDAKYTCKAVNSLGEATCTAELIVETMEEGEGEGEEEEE
Sequence of TrkA (P04629 33-796, species assumed): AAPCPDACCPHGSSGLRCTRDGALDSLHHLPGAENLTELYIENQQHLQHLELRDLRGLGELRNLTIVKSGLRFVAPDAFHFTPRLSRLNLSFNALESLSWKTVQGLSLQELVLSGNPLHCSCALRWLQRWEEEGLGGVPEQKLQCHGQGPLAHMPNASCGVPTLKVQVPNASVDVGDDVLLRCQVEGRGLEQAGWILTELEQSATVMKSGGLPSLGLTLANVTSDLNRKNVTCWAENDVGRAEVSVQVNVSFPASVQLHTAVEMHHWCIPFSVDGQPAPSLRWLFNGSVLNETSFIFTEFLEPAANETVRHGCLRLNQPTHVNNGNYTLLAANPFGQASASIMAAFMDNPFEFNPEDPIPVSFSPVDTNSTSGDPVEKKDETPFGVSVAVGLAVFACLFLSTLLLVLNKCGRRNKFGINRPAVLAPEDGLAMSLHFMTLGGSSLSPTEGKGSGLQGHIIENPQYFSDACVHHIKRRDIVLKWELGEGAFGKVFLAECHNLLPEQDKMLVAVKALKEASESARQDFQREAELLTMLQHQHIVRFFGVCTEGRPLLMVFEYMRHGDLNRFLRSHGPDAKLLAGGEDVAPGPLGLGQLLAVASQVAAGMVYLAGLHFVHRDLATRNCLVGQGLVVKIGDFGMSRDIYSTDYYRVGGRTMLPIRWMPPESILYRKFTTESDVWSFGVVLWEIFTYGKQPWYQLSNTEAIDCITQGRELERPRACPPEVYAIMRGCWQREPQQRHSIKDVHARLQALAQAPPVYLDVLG
Sequence of S6K1 (P23443 whole entry, species assumed): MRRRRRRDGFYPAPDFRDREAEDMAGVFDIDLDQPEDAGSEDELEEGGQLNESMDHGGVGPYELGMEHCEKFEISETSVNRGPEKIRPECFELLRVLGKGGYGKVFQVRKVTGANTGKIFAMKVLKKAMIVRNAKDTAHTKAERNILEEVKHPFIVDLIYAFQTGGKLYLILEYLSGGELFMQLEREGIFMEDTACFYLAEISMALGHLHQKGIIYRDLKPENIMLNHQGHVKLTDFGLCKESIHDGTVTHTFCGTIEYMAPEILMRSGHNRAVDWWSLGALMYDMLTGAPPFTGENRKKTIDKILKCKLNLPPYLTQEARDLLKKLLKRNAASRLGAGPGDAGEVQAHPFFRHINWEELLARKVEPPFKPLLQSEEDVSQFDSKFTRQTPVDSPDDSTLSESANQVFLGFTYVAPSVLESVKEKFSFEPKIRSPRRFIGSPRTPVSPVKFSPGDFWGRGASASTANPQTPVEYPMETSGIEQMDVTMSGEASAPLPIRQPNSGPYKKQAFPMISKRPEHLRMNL
Sequence of HIPK2 (Q9H2X6 whole entry, species assumed): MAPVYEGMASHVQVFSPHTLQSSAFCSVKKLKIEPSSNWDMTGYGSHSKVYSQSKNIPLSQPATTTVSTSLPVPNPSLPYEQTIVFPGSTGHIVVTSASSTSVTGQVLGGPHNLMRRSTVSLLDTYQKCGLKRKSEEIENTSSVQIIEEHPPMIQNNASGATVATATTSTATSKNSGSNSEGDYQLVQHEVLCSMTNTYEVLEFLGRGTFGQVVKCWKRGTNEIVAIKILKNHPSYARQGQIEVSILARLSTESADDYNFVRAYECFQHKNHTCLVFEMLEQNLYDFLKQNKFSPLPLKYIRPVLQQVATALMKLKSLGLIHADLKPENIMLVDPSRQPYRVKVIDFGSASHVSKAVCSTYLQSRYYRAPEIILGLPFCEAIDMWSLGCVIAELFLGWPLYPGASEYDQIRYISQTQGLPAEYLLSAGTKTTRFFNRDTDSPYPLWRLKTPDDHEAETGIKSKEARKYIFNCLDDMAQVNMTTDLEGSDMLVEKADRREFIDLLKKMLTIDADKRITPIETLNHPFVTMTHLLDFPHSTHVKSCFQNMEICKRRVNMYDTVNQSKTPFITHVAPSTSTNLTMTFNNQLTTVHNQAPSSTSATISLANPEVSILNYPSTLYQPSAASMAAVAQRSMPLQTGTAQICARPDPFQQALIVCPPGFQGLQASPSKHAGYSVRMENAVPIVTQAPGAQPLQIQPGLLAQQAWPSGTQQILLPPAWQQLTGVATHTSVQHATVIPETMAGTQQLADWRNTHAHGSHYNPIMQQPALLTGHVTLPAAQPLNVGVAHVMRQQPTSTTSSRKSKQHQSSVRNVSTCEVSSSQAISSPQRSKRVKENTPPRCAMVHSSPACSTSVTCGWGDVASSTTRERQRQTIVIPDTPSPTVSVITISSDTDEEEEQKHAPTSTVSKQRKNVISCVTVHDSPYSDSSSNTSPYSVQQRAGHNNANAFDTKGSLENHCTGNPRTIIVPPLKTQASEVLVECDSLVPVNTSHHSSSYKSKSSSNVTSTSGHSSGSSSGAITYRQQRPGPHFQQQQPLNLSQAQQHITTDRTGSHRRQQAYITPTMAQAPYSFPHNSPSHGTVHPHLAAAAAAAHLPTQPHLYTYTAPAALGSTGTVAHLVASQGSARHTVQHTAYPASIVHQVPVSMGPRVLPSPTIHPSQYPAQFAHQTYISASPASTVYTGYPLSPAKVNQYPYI
Sequence of JNK3 (P53779 whole entry, species assumed): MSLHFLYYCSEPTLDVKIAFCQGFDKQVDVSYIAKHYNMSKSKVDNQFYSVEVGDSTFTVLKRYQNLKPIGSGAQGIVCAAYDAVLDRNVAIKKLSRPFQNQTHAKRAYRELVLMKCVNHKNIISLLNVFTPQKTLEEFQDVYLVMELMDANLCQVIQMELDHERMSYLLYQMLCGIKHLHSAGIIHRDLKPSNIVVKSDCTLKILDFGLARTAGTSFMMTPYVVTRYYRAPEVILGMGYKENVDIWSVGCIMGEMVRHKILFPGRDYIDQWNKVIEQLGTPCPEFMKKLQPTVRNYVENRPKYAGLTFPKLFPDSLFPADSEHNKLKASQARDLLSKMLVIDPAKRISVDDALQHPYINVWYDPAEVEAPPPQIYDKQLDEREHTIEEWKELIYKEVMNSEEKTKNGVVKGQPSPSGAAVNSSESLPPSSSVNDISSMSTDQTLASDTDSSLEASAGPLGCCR
Sequence of Src (P12931 whole entry, species assumed): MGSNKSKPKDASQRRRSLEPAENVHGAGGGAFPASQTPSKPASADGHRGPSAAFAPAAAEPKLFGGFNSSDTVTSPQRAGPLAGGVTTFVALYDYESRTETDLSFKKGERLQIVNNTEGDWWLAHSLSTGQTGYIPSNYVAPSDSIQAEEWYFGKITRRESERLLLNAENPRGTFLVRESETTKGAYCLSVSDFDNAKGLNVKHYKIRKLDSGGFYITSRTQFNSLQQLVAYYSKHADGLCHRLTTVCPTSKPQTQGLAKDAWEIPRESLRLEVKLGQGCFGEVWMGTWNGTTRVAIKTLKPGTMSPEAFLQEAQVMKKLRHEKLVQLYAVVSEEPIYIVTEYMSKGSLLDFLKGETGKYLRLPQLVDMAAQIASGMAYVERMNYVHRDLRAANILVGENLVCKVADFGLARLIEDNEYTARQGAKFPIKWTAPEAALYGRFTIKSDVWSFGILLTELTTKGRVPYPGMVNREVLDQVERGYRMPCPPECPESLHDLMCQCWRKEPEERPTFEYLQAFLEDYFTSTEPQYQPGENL

With `CC(=O)Nc1nc2cc(O)ccc2s1` [Compound 01-66, N-(5-hydroxybenzo[d]thiazol-2-yl)acetamide], the remaining activity at 100 µM on JNK3 is 37%; at p38g MAPK it was 46%; at p38d MAPK, 70%; at S6K1, 54%; on SmMLCK, 58%; on HIPK2 it was 20%. Also, the remaining activity at 100 µM at IRAK4 was determined as 18%; at TTK it was 39%; on Src, 45%; at TrkA it was 57%. Moreover, in the experiment on VEG-FR, the “residual kinase activity, VEG-FR” value was found to be 24.

In the case of `CC(=O)Nc1nc2ccc(O)cc2s1` [Compound 01-71], the remaining activity at 100 µM on JNK3 (setting [1]) is 66%; on p38g MAPK (setting [1]) it was 84%; on p38d MAPK (setting [1]), 43%; on S6K1 (setting [1]), 23%; on SmMLCK, 39%; at HIPK2 (setting [1]) it was 14%. For the same compound, the remaining activity at 100 µM was 13% at IRAK4 (setting [1]), 31% at TTK (setting [1]), 57% on Src (setting [1]) and 42% on TrkA (setting [1]). Further, in the experiment on VEG-FR, the “residual kinase activity, VEG-FR” value is reported as 9.

As to `CC(=O)Nc1nc2ccc(C(F)(F)F)cc2s1` [Compound 01-90], the remaining activity at 100 µM at JNK3 (setting [1]) was 76%; at p38g MAPK (setting [1]), 101%; on p38d MAPK (setting [1]) it was 76%; on S6K1 (setting [1]), 85%; on SmMLCK it was 80%; at HIPK2 (setting [1]), 16%. The remaining activity at 100 µM worked out at 12% at IRAK4 (setting [1]), 49% at TTK (setting [1]), 63% at Src (setting [1]) and 45% at TrkA (setting [1]). Besides, the “residual kinase activity, VEG-FR” value in the experiment on VEG-FR turned out to be 8.

`CC(=O)Nc1nc2ccc(C#N)cc2s1` [Compound 01-94]: the remaining activity at 100 µM on JNK3 (setting [1]) worked out at 53%; on p38g MAPK (setting [1]), 82%; at p38d MAPK (setting [1]) it was 69%; at S6K1 (setting [1]), 73%; on SmMLCK, 54%; on HIPK2 (setting [1]), 23%. Also, the remaining activity at 100 µM on IRAK4 (setting [1]) was 10%; on TTK (setting [1]) it was 33%; at Src (setting [1]) it was 94%; at TrkA (setting [1]), 87%. In the experiment on VEG-FR, the “residual kinase activity, VEG-FR” value was found to be 11.

As for `CC(=O)Nc1cccc(C(=O)Nc2nc3ccc(O)cc3s2)c1` [Compound 03-58], the “residual kinase activity, JNK3” value on JNK3 (setting [1]) is listed as 51. Further, at p38g MAPK (setting [1]), the “residual kinase activity, p38g MAPK” value turned out to be 64. For the same compound, at p38d MAPK (setting [1]), the “residual kinase activity, p38d MAPK” value stood at 75. Also, on S6K1 (setting [1]), the “residual kinase activity, S6K1” value is given as 9.

For the compound `CC(=O)NC(C)C(=O)Nc1nc2ccc(C(F)(F)F)cc2s1` (stereo not drawn) [Compound 03-80], the “residual kinase activity, JNK3” value at JNK3 (setting [1]) is 79. For the same compound, the “residual kinase activity, p38g MAPK” value on p38g MAPK (setting [1]) was 83. Moreover, the “residual kinase activity, p38d MAPK” value at p38d MAPK (setting [1]) stood at 102. The “residual kinase activity, S6K1” value at S6K1 (setting [1]) is recorded as 97.

Consider `CC(=O)Nc1ccccc1C(=O)Nc1nc2ccc(O)cc2s1` [Compound 08-39], for which the “residual kinase activity, JNK3” value at JNK3 (setting [1]) came to 53. In addition, the “residual kinase activity, p38g MAPK” value on p38g MAPK (setting [1]) is 90. In addition, the “residual kinase activity, p38d MAPK” value on p38d MAPK (setting [1]) turned out to be 67. Also, the “residual kinase activity, S6K1” value on S6K1 (setting [1]) was 12.

As for `COc1ccc2sc(NC(=O)c3ccc(NC(C)=O)cc3)nc2c1` [MS:LY-2-77], the “residual kinase activity, JNK3” value at JNK3 (setting [1]) turned out to be 88. The “residual kinase activity, p38g MAPK” value at p38g MAPK (setting [1]) turned out to be 121. For the same compound, on p38d MAPK (setting [1]), the “residual kinase activity, p38d MAPK” value came out at 98. Further, the “residual kinase activity, S6K1” value at S6K1 (setting [1]) is listed as 94.

For the compound `COc1ccc2sc(NC(=O)c3cccc(NC(C)=O)c3)nc2c1` [MS:LY-2-85], the “residual kinase activity, JNK3” value on JNK3 (setting [1]) came out at 62. Also, the “residual kinase activity, p38g MAPK” value at p38g MAPK (setting [1]) was 80. At p38d MAPK (setting [1]), the “residual kinase activity, p38d MAPK” value stood at 72. On S6K1 (setting [1]), the “residual kinase activity, S6K1” value came to 50.

Consider `CC(=O)Nc1ccc(C(=O)Nc2nc3cc(O)ccc3s2)cc1` [MS:LY-2-87], for which the “residual kinase activity, JNK3” value at JNK3 (setting [1]) was 66. The “residual kinase activity, p38g MAPK” value on p38g MAPK (setting [1]) was 93. Moreover, the “residual kinase activity, p38d MAPK” value at p38d MAPK (setting [1]) is given as 75. Further, the “residual kinase activity, S6K1” value at S6K1 (setting [1]) is on record as 39.

Turning to `CC(=O)Nc1cccc(C(=O)Nc2nc3cc(O)ccc3s2)c1` [MS:LY-2-89], the “residual kinase activity, JNK3” value on JNK3 (setting [1]) amounted to 36. Also, the “residual kinase activity, p38g MAPK” value on p38g MAPK (setting [1]) was found to be 64. The “residual kinase activity, p38d MAPK” value at p38d MAPK (setting [1]) worked out at 70. For the same compound, the “residual kinase activity, S6K1” value on S6K1 (setting [1]) was found to be 14.

Values taken from US10231954B2, “Neurodegenerative therapies” (LYTIX BIOPHARMA AS, priority 2014, dated 2019).
